A short description of series [1]: Dissolution of ingredients from the tablet during accelerated stability testing. It counts as physicochemical. Conditions: 40 +/- 2 deg C and 75 +/- 5% RH, 150 cc white HDPE bottle.
Series [2] is described as follows: Stability testing of the preferred embodiment tablet under accelerated storage conditions (ingredient content as % of claim). It counts as physicochemical. The settings on record: 40 +/- 2 deg C and 75 +/- 5% RH, 150 cc white HDPE bottle.

For the compound `[Ca+2]` [Calcium], the “Dissolution, result as % of claim at indicated weeks” value (shortened to “Dissolution, result as % of claim”) in series [1] (13 wk) was 119 % of claim; in series [1] (26 wk), 115 % of claim. In addition, the “Result as % of claim at indicated weeks” value is on record as 120 % of claim in series [2] (13 wk) and 118 % of claim in series [2] (26 wk).
For `Cc1cc2nc3c(=O)[nH]c(=O)nc-3n(C[C@H](O)[C@H](O)[C@H](O)CO)c2cc1C` [Vitamin B2, Riboflavin], the “Dissolution, result as % of claim” value is on record as 133 % of claim in series [1] (0 wk); 120 % of claim in series [1] (4 wk); 109 % of claim in series [1] (8 wk); 119 % of claim in series [1] (13 wk); 125 % of claim in series [1] (26 wk). Further, the “Result as % of claim at indicated weeks” value in series [2] (0 wk) is reported as 132 % of claim; in series [2] (4 wk), 123 % of claim; in series [2] (8 wk) it was 125 % of claim; in series [2] (13 wk), 123 % of claim; in series [2] (26 wk) it was 123 % of claim.
Consider Silicon, for which the “Result as % of claim at indicated weeks” value in series [2] (0 wk) is 108 % of claim; in series [2] (8 wk), 109 % of claim; in series [2] (13 wk), 122 % of claim; in series [2] (26 wk), 107 % of claim.
Turning to `CC1=C(/C=C/C(C)=C/C=C/C(C)=C/C=C/C=C(C)/C=C/C=C(C)/C=C/C2=C(C)CCCC2(C)C)C(C)(C)CCC1` [Beta Carotene], the “Result as % of claim at indicated weeks” value is listed as 123 % of claim in series [2] (0 wk); 139 % of claim in series [2] (4 wk); 130 % of claim in series [2] (8 wk); 144 % of claim in series [2] (13 wk); 124 % of claim in series [2] (26 wk).
The like results for `Nc1nc2ncc(CNc3ccc(C(=O)N[C@@H](CCC(=O)O)C(=O)O)cc3)nc2c(=O)[nH]1` [Folic Acid] were, in that order, 169 % of claim, 132 % of claim, 125 % of claim, 120 % of claim and 117 % of claim.
As to `[Se]` [Selenium], the “Result as % of claim at indicated weeks” value in series [2] (0 wk) is reported as 103 % of claim; in series [2] (4 wk) it was 136 % of claim; in series [2] (8 wk), 123 % of claim; in series [2] (13 wk), 129 % of claim; in series [2] (26 wk) it was 126 % of claim.
On the same counts, the results for `CC(C)=CCC/C(C)=C/C=C/C(C)=C/C=C/C(C)=C/C=C/C=C(C)/C=C/C=C(C)/C=C/C=C(\C)CCC=C(C)C` [Lycopene] are 131 % of claim, 144 % of claim, 170 % of claim, 156 % of claim and 150 % of claim.
Turning to Vitamin A, the “Result as % of claim at indicated weeks” value in series [2] (0 wk) is listed as 136 % of claim; in series [2] (4 wk) it was 134 % of claim; in series [2] (8 wk), 113 % of claim; in series [2] (13 wk), 106 % of claim; in series [2] (26 wk) it was 110 % of claim.
As to `O=C1O[C@H]([C@@H](O)CO)C(O)=C1O` [Vitamin C], the “Result as % of claim at indicated weeks” value in series [2] (0 wk) is 108 % of claim; in series [2] (4 wk), 106 % of claim; in series [2] (8 wk), 103 % of claim; in series [2] (13 wk), 114 % of claim; in series [2] (26 wk), 104 % of claim.
With Vitamin E, the “Result as % of claim at indicated weeks” value in series [2] (0 wk) is 126 % of claim; in series [2] (4 wk), 115 % of claim; in series [2] (8 wk), 110 % of claim; in series [2] (13 wk), 125 % of claim; in series [2] (26 wk) it was 121 % of claim.
Regarding `[Cu]` [Copper], the “Result as % of claim at indicated weeks” value is reported as 115 % of claim in series [2] (0 wk); 111 % of claim in series [2] (4 wk); 111 % of claim in series [2] (8 wk); 114 % of claim in series [2] (13 wk); 109 % of claim in series [2] (26 wk).
`[Cr]` [Chromium]: the “Result as % of claim at indicated weeks” value was 139 % of claim in series [2] (0 wk); 128 % of claim in series [2] (4 wk); 120 % of claim in series [2] (8 wk); 133 % of claim in series [2] (13 wk); 121 % of claim in series [2] (26 wk).
With `[Mn+2]` [Manganese], the “Result as % of claim at indicated weeks” value in series [2] (0 wk) was 119 % of claim; in series [2] (4 wk) it was 114 % of claim; in series [2] (8 wk) it was 115 % of claim; in series [2] (13 wk), 115 % of claim; in series [2] (26 wk), 113 % of claim.
For `Cc1ncc(CO)c(CO)c1O.Cl` [Vitamin B6], the “Result as % of claim at indicated weeks” value in series [2] (0 wk) is 116 % of claim; in series [2] (4 wk) it was 109 % of claim; in series [2] (8 wk), 110 % of claim; in series [2] (13 wk) it was 137 % of claim; in series [2] (26 wk), 114 % of claim.
As for `[Zn]` [Zinc], the “Dissolution, result as % of claim” value in series [1] (0 wk) is 117 % of claim; in series [1] (4 wk) it was 102 % of claim; in series [1] (8 wk), 104 % of claim; in series [1] (13 wk), 107 % of claim. The “Result as % of claim at indicated weeks” value in series [2] (0 wk) was 121 % of claim; in series [2] (4 wk), 109 % of claim; in series [2] (8 wk), 117 % of claim; in series [2] (13 wk), 108 % of claim; in series [2] (26 wk) it was 112 % of claim.
With `O=C(O)CCCC[C@@H]1SC[C@@H]2NC(=O)N[C@@H]21` [Biotin], the “Result as % of claim at indicated weeks” value in series [2] (0 wk) was 105 % of claim; in series [2] (4 wk), 101 % of claim; in series [2] (8 wk) it was 100 % of claim; in series [2] (13 wk), 114 % of claim; in series [2] (26 wk), 93.0 % of claim.

The values are drawn from patent US20020132800A1, “Dietary supplement composition and method for improving and maintaining healthy skin” (priority 2000, published 2002).
